# Molecular target: T1, C5AR1 (Homo sapiens, UniProt P21730)
# T1 construct: host or cells: CHO-K1
# T1 sequence (P21730 1-350): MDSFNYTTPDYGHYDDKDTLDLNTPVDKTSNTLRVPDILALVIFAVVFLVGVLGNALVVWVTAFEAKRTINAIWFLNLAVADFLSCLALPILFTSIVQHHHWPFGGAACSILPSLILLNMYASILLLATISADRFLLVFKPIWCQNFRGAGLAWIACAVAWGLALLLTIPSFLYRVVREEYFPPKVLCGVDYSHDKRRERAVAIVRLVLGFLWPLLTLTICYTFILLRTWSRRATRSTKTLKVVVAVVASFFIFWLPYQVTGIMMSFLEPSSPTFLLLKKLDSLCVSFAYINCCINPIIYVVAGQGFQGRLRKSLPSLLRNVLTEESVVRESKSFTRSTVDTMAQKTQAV
# Assay: hC5a DISCO IC50 assay (PathHunter beta-arrestin, antagonist mode)
# Type: cell-based
# Settings: CHO-K1 C5AR1 beta-arrestin cell line; antagonist vs 1-10 nM C5a agonist; geometric mean values; read-out: C5aR IC50
# How it was run: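 Antagonist added first, then 1-10 nM C5a agonist; cells incubated 1.5 h at 37 °C. Beta-arrestin signal developed with PathHunter detection reagent, 45 min at RT. IC50 in nmol/l from serial antagonist dilutions, reported as geometric mean of several measurements.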
row,IC50,Structure (SMILES)
1,36 nM,"COc1ccccc1Cn1c(=O)n([C@@H]2CCN(c3c(C)cccc3C)C2)c2cccc(OC)c21 [Example 67, 1-[(R)-1-(2,6-Dimethyl-phenyl)-pyrrolidin-3-yl]-4-methoxy-3-(2-methoxy-benzyl)-1,3-dihydro-benzoimidazol-2-one]"
2,84 nM,"COc1ccccc1Cn1c(=O)n([C@@H]2CCN(c3c(F)cccc3F)C2)c2cccc(OC)c21 [Example 68, 1-[(R)-1-(2,6-Difluoro-phenyl)-pyrrolidin-3-yl]-4-methoxy-3-(2-methoxy-benzyl)-1,3-dihydro-benzoimidazol-2-one]"
3,2820 nM,"COc1cccc2c1n(Cc1ccccc1C(F)(F)F)c(=O)n2[C@@H]1CCN(c2nnc(C(C)C)o2)C1 [Example 69, 1-[(R)-1-(5-Isopropyl-[1,3,4]oxadiazol-2-yl)-pyrrolidin-3-yl]-4-methoxy-3-(2-trifluoromethyl-benzyl)-1,3-dihydro-benzoimidazol-2-one]"
4,538 nM,"COc1cccc2c1n(Cc1ccccc1C(F)(F)F)c(=O)n2[C@@H]1CCN(C(=O)OC2(C)COC2)C1 [Example 70, (R)-3-[4-Methoxy-2-oxo-3-(2-trifluoromethyl-benzyl)-2,3-dihydro-benzoimidazol-1-yl]-pyrrolidine-1-carboxylic acid 3-methyl-oxetan-3-yl ester]"
5,133 nM,"COc1cccc2c1n(Cc1ccccc1C(F)(F)F)c(=O)n2[C@@H]1CCN(c2c(C=O)c(C)nn2C)C1 [Example 71, 5-{(R)-3-[4-Methoxy-2-oxo-3-(2-trifluoromethyl-benzyl)-2,3-dihydro-benzoimidazol-1-yl]-pyrrolidin-1-yl}-1,3-dimethyl-1H-pyrazole-4-carbaldehyde]"
6,397 nM,"COc1cccc2c1n(Cc1ccccc1C(F)(F)F)c(=O)n2[C@@H]1CCN(C(=O)OC2COC2)C1 [Example 72, (R)-3-[4-Methoxy-2-oxo-3-(2-trifluoromethyl-benzyl)-2,3-dihydro-benzoimidazol-1-yl]-pyrrolidine-1-carboxylic acid oxetan-3-yl ester]"
7,272 nM,"COc1cccc2c1n(Cc1ccncc1C(F)(F)F)c(=O)n2C1CCN(c2c(C)cccc2C)CC1 [Example 73, 1-[1-(2,6-Dimethyl-phenyl)-piperidin-4-yl]-4-methoxy-3-(3-trifluoromethyl-pyridin-4-ylmethyl)-1,3-dihydro-benzoimidazol-2-one]"
8,1330 nM,"COc1cccc2c1n(Cc1ccncc1C(F)(F)F)c(=O)n2C1CCN(c2c(F)cccc2F)CC1 [Example 74, 1-[1-(2,6-Difluoro-phenyl)-piperidin-4-yl]-4-methoxy-3-(3-trifluoromethyl-pyridin-4-ylmethyl)-1,3-dihydro-benzoimidazol-2-one]"
9,27 nM,"COc1cccc2c1n(Cc1ncccc1C(F)(F)F)c(=O)n2C1CCN(c2c(C)cccc2C)CC1 [Example 75, 1-[1-(2,6-Dimethyl-phenyl)-piperidin-4-yl]-4-methoxy-3-(3-trifluoromethyl-pyridin-2-ylmethyl)-1,3-dihydro-benzoimidazol-2-one]"
10,38 nM,"COc1cccc2c1n(Cc1ncccc1C(F)(F)F)c(=O)n2C1CCN(c2c(F)cccc2F)CC1 [Example 76, 1-[1-(2,6-Difluoro-phenyl)-piperidin-4-yl]-4-methoxy-3-(3-trifluoromethyl-pyridin-2-ylmethyl)-1,3-dihydro-benzoimidazol-2-one]"
11,89 nM,"COc1ccccc1Cn1c(=O)n([C@@H]2CCN(c3c(C)cccc3C)C2)c2ccnc(OC)c21 [Example 77, 1-[(R)-1-(2,6-Dimethyl-phenyl)-pyrrolidin-3-yl]-4-methoxy-3-(2-methoxy-benzyl)-1,3-dihydro-imidazo[4,5-c]pyridin-2-one]"
12,121 nM,"COc1ccccc1Cn1c(=O)n([C@@H]2CCN(c3c(C)cccc3F)C2)c2ccnc(OC)c21 [Example 78, 1-[(R)-1-(2-Fluoro-6-methyl-phenyl)-pyrrolidin-3-yl]-4-methoxy-3-(2-methoxy-benzyl)-1,3-dihydro-imidazo[4,5-c]pyridin-2-one]"
13,911 nM,"COc1cccc2c1n(Cc1ccccc1C(F)(F)F)c(=O)n2[C@@H]1CCN(c2cc(C)nn2C)C1 [Example 79, 1-[(R)-1-(2,5-Dimethyl-2H-pyrazol-3-yl)-pyrrolidin-3-yl]-4-methoxy-3-(2-trifluoromethyl-benzyl)-1,3-dihydro-benzoimidazol-2-one]"
14,157 nM,"COc1cccc2c1n(Cc1ccccc1C(F)(F)F)c(=O)n2[C@@H]1CCN(c2c(Cl)c(C)nn2C)C1 [Example 80, 1-[(R)-1-(4-Chloro-2,5-dimethyl-2H-pyrazol-3-yl)-pyrrolidin-3-yl]-4-methoxy-3-(2-trifluoromethyl-benzyl)-1,3-dihydro-benzoimidazol-2-one]"
15,2430 nM,"COc1ccccc1Cn1c(=O)n([C@@H]2CCN(c3c(C)cccc3F)C2)c2cc[nH]c(=O)c21 [Example 81, 1-[(R)-1-(2-Fluoro-6-methyl-phenyl)-pyrrolidin-3-yl]-3-(2-methoxy-benzyl)-3,5-dihydro-1H-imidazo[4,5-c]pyridine-2,4-dione]"
16,28 nM,"COc1cccc2c1n(Cc1ccccc1C(F)(F)F)c(=O)n2[C@@H]1CCN(c2c(F)cccc2C#N)C1 [Example 82, 3-Fluoro-2-{(R)-3-[4-methoxy-2-oxo-3-(2-trifluoromethyl-benzyl)-2,3-dihydro-benzoimidazol-1-yl]-pyrrolidin-1-yl}-benzonitrile]"
17,23 nM,"COc1cccc2c1n(Cc1ccccc1C(F)(F)F)c(=O)n2[C@@H]1CCN(c2c(F)cccc2C=O)C1 [Example 83, 3-Fluoro-2-{(R)-3-[4-methoxy-2-oxo-3-(2-trifluoromethyl-benzyl)-2,3-dihydro-benzoimidazol-1-yl]-pyrrolidin-1-yl}-benzaldehyde]"
18,2030 nM,"COc1cccc2c1n(Cc1ccccc1C(F)(F)F)c(=O)n2[C@@H]1CCN(c2nnc(C(F)(F)F)o2)C1 [Example 84, 4-Methoxy-3-(2-trifluoromethyl-benzyl)-1-[(R)-1-(5-trifluoromethyl-[1,3,4]oxadiazol-2-yl)-pyrrolidin-3-yl]-1,3-dihydro-benzoimidazol-2-one]"
19,712 nM,"COc1cccc2c1n(Cc1ccccc1C(F)(F)F)c(=O)n2[C@@H]1CCN(c2c(C)c(C)nn2C)C1 [Example 85, 4-Methoxy-3-(2-trifluoromethyl-benzyl)-1-[(R)-1-(2,4,5-trimethyl-2H-pyrazol-3-yl)-pyrrolidin-3-yl]-1,3-dihydro-benzoimidazol-2-one]"
20,229 nM,"COc1cccc2c1n(Cc1ccccc1C(F)(F)F)c(=O)n2[C@@H]1CCN(C(=O)OC2(C(F)(F)F)COC2)C1 [Example 86, (R)-3-[4-Methoxy-2-oxo-3-(2-trifluoromethyl-benzyl)-2,3-dihydro-benzoimidazol-1-yl]-pyrrolidine-1-carboxylic acid 3-trifluoromethyl-oxetan-3-yl ester]"
21,629 nM,"COc1cccc2c1n(Cc1ccccc1C(F)(F)F)c(=O)n2[C@@H]1CCN(c2c(C#N)c(C)nn2C)C1 [Example 87, 5-{(R)-3-[4-Methoxy-2-oxo-3-(2-trifluoromethyl-benzyl)-2,3-dihydro-benzoimidazol-1-yl]-pyrrolidin-1-yl}-1,3-dimethyl-1H-pyrazole-4-carbonitrile]"
22,39 nM,"COc1cccc2c1n(Cc1ccccc1C(F)(F)F)c(=O)n2[C@@H]1CCN(c2c(F)cccc2CO)C1 [Example 88, 1-[(R)-1-(2-Fluoro-6-hydroxymethyl-phenyl)-pyrrolidin-3-yl]-4-methoxy-3-(2-trifluoromethyl-benzyl)-1,3-dihydro-benzoimidazol-2-one]"
23,44 nM,"COc1cccc2c1n(Cc1ccccc1C(F)(F)F)c(=O)n2[C@@H]1CCN(c2c(F)cccc2C(C)O)C1 (stereo partly drawn) [Example 89, 1-{(R)-1-[2-Fluoro-6-(1-hydroxy-ethyl)-phenyl]-pyrrolidin-3-yl}-4-methoxy-3-(2-trifluoromethyl-benzyl)-1,3-dihydro-benzoimidazol-2-one]"
24,38 nM,"COc1cccc2c1n(Cc1ccccc1C(F)(F)F)c(=O)n2[C@@H]1CCN(c2c(F)cccc2C(C)=O)C1 [Example 90, 1-[(R)-1-(2-Acetyl-6-fluoro-phenyl)-pyrrolidin-3-yl]-4-methoxy-3-(2-trifluoromethyl-benzyl)-1,3-dihydro-benzoimidazol-2-one]"
25,70 nM,"COc1cccc2c1n(Cc1ccccc1C(F)(F)F)c(=O)n2[C@@H]1CCN(c2c(F)cccc2C(C)(C)O)C1 [Example 91, 1-{(R)-1-[2-Fluoro-6-(1-hydroxy-1-methyl-ethyl)-phenyl]-pyrrolidin-3-yl}-4-methoxy-3-(2-trifluoromethyl-benzyl)-1,3-dihydro-benzoimidazol-2-one]"
26,2020 nM,"COc1cc(Cl)nnc1Cn1c(=O)n([C@@H]2CCN(c3c(C)cccc3F)C2)c2cccc(OC)c21 [Example 92, 3-(6-Chloro-4-methoxy-pyridazin-3-ylmethyl)-1-[(R)-1-(2-fluoro-6-methyl-phenyl)-pyrrolidin-3-yl]-4-methoxy-1,3-dihydro-benzoimidazol-2-one]"
27,149 nM,"Cc1cccc(C)c1N1CC[C@@H](n2c(=O)n(Cc3ccccc3C(F)(F)F)c3c(=O)[nH]ccc32)C1 [Example 93, 1-[(R)-1-(2,6-Dimethyl-phenyl)-pyrrolidin-3-yl]-3-(2-trifluoromethyl-benzyl)-3,5-dihydro-1H-imidazo[4,5-c]pyridine-2,4-dione]"
28,313 nM,"COc1cccc(C)c1N1CC[C@@H](n2c(=O)n(Cc3ccccc3C(F)(F)F)c3c(=O)[nH]ccc32)C1 [Example 94, 1-[(R)-1-(2-Methoxy-6-methyl-phenyl)-pyrrolidin-3-yl]-3-(2-trifluoromethyl-benzyl)-3,5-dihydro-1H-imidazo[4,5-c]pyridine-2,4-dione]"
